The results in this text go back to patent publication US8507533B2, “Glucagon receptor modulators” (Pfizer Inc., priority 2011, dated 2013).

Assay [1] deals with T1, human glucagon receptor (Homo sapiens (Human), UniProt P47871). The assay is described as follows: Glucagon cAMP Assay (Cisbio cAMP detection). The format is cell-based. The following applies: CHOK1 cells stably transfected with the human glucagon receptor; block of glucagon induced cAMP production; Kb by modified Cheng-Prusoff equation.
Assay [2] has as its target T1, human glucagon receptor. The assay is described as follows: Human Glucagon SPA Assay (binding of [125I]Glucagon-Cex). As to conditions: membrane from chem-1 cells stably transfected with the human glucagon receptor, Ki by Cheng-Prusoff equation. On the procedure: The Glucagon SPA assay is used to determine the ability of test compounds to block the binding of glucagon-cex to the glucagon receptor. Test compounds are re-suspended and serially diluted in 100% DMSO. 1 μl of test compound at the desired concentrations is spotted into the appropriate wells of 96 well low binding white clear bottom plate (Corning). 1 μl of DMSO is spotted into total binding wells. 1 μl of a known glucagon antagonist at a concentration of 20 μM is added to non specific binding wells. […] All assay ingredients with the exception of test compounds are re-suspended in the following buffer; 50 mM Hepes pH 7.4; 5 mM MgCl2; 1 mM CaCl; 5% glycerol and 0.2% BSA. Following a 6-10 hr incubation at room temperature the amount of hot ligand bound to the cell membranes is determined by reading the plates on a Wallac Trilux radioactive emission detector. Data is analyzed using Pfizer's Data analysis program. IC50 values are then determined from the generated sigmoidal dose response curves. Ki values are calculated using Cheng-Prusoff equation. N is the number of times the compound was assayed.

T1 sequence (P47871 26-477): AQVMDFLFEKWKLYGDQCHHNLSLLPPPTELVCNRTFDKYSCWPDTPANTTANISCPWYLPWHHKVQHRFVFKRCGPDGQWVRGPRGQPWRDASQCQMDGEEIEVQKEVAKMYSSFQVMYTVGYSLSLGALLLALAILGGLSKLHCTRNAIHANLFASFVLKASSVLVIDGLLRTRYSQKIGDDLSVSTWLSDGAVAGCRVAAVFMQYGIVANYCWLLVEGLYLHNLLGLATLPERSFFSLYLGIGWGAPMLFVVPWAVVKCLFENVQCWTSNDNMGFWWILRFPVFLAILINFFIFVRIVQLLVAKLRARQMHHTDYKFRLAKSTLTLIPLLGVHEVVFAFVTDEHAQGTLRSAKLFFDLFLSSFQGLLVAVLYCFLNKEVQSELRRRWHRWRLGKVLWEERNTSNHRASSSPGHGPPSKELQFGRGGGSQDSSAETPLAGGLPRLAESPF

With `CCCC(Nc1ccc(-n2cc(C(F)(F)F)cn2)nc1)c1ccc(C(=O)NCCC(=O)O)cc1F` (single isomer, unassigned) [Example 110, 3-(3-fluoro-4-(1-(6-(4-(trifluoromethyl)-1H-pyrazol-1-yl)pyridin-3-ylamino)butyl)benzamido)propanoic acid], the Kb on human glucagon receptor [1] amounted to 97 nM. At human glucagon receptor [2], the affinity, expressed as Ki, was 57.2 nM.

In turn, `CCCC(Nc1ccc(-n2cc(C(F)(F)F)cn2)nc1)c1ccc(C(=O)NCCC(=O)O)cc1C` (single isomer, unassigned) [Example 111, 3-(3-methyl-4-(1-(6-(4-(trifluoromethyl)-1H-pyrazol-1-yl)pyridin-3-ylamino)butyl)benzamido)propanoic acid] showed a Kb on human glucagon receptor [1] of 2350 nM. Also, the Ki (usually the dissociation constant of the complex between target and ligand, obtained from inhibition or displacement) at human glucagon receptor [2] came out at 202 nM.

Take `CCCC(Nc1ccc(-n2cc(C(F)(F)F)cn2)nc1)c1ccc(C(=O)NCCC(=O)O)cc1C` (single isomer, unassigned) [Example 112]: the Kb on human glucagon receptor [1] stood at 126 nM. For the same molecule, on human glucagon receptor [2], the Ki was found to be 143 nM.

The molecule `CC1(C)CC(C(Nc2ccc(-n3cc(C(F)(F)F)cn3)nc2)c2ccc(C(=O)NCCC(=O)O)cc2)C1` (single isomer, unassigned) [Example 114, 3-(4-((3,3-dimethylcyclobutyl)(6-(4-(trifluoromethyl)-1H-pyrazol-1-yl)pyridin-3-ylamino)methyl)benzamido)propanoic acid] came in with a Kb on human glucagon receptor [1] of 17 nM. At human glucagon receptor [2], this molecule gave a Ki of 7.6 nM.

Consider `CC1(C)CC(C(Nc2ccc(-n3cc(C(F)(F)F)cn3)nc2)c2ccc(C(=O)NCCC(=O)O)cc2)C1` (single isomer, unassigned) [Example 115, 3-(4-((3,3-dimethylcyclobutyl)(6-(4-(trifluoromethyl)-1H-pyrazol-1-yl)pyridin-3-ylamino)methyl)benzamido)propanoic acid], for which the Kb at human glucagon receptor [1] worked out at 231 nM. Further, the Ki on human glucagon receptor [2] was found to be 15.8 nM.

At human glucagon receptor [1], `CCCC(Oc1ccc(-n2cc3ccccc3n2)c(C)c1)c1ccc(C(=O)NCCC(=O)O)cc1` (single isomer, unassigned) [Example 116, 3-(4-(1-(4-(2H-indazol-2-yl)-3-methylphenoxy)butyl)benzamido)propanoic acid] yielded a Kb of 450 nM. In addition, the Ki on human glucagon receptor [2] stood at 464 nM.

The molecule `O=C(O)CCNC(=O)c1ccc(C(Nc2ccc(-n3cnc(Cl)c3)nc2)C2CCCC2)cc1` (single isomer, unassigned) [Example 120, 3-(4-((6-(4-chloro-1H-imidazol-1-yl)pyridin-3-ylamino)(cyclopentyl)methyl)benzamido)propanoic acid] displayed a Kb on human glucagon receptor [1] of 65 nM. In addition, the affinity at human glucagon receptor [2] corresponds to a Ki of 225 nM.

The molecule `CCCC(Nc1ccc(-n2cnc(-c3ccccc3)c2)nc1)c1ccc(C(=O)NCCC(=O)O)cc1` (single isomer, unassigned) [Example 129, 3-(4-(1-(6-(4-phenyl-1H-imidazol-1-yl)pyridin-3-ylamino)butyl)benzamido)propanoic acid] returned a Kb on human glucagon receptor [1] of 13 nM. Also, the Ki on human glucagon receptor [2] was 29.3 nM.

As to `CC1(C)CC([C@@H](Nc2ccc(-n3cnc(C(F)(F)F)c3)nc2)c2ccc(C(=O)NCCC(=O)O)cc2)C1` (single isomer, unassigned) [Example 134, 3-(4-((3,3-dimethylcyclobutyl)(6-(4-(trifluoromethyl)-1H-imidazol-1-yl)pyridin-3-ylamino)methyl)benzamido)propanoic acid], the Kb on human glucagon receptor [1] was determined as 876 nM. Also, the Ki on human glucagon receptor [2] amounted to 110 nM.

On human glucagon receptor [1], `CC1(C)CC([C@@H](Nc2ccc(-n3cnc(C(F)(F)F)c3)nc2)c2ccc(C(=O)NCCC(=O)O)cc2)C1` (single isomer, unassigned) [Example 135, 3-(4-((3,3-dimethylcyclobutyl)(6-(4-(trifluoromethyl)-1H-imidazol-1-yl)pyridin-3-ylamino)methyl)benzamido)propanoic acid] showed a Kb of 28 nM. The molecule further returned a Ki on human glucagon receptor [2] of 35 nM.

On to `CCC[C@@H](Nc1ccc(-n2cc(C(C)(C)C)cn2)nc1)c1ccc(C(=O)NCCC(=O)O)cc1` (single isomer, unassigned) [Example 136, 3-(4-(1-(6-(4-tert-butyl-1H-pyrazol-1-yl)pyridin-3-ylamino)butyl)benzamido)propanoic acid], for which the Kb on human glucagon receptor [1] is 222 nM. On human glucagon receptor [2], this molecule displayed a Ki of 30.2 nM.

On to `CCC[C@@H](Nc1ccc(-n2cc(C(C)(C)C)cn2)nc1)c1ccc(C(=O)NCCC(=O)O)cc1` (single isomer, unassigned) [Example 137, 3-(4-(1-(6-(4-tert-butyl-1H-pyrazol-1-yl)pyridin-3-ylamino)butyl)benzamido)propanoic acid], for which the Kb at human glucagon receptor [1] worked out at 27 nM. This molecule also had an inhibition constant Ki on human glucagon receptor [2] of 20.2 nM.

In turn, `Cc1cc(OC(c2ccc(C(=O)NCCC(=O)O)cc2)C2CCC2)cc(C)c1-n1cc(C(F)(F)F)cn1` (single isomer, unassigned) [Example 138, 3-(4-(cyclobutyl(3,5-dimethyl-4-(4-(trifluoromethyl)-1H-pyrazol-1-yl)phenoxy)methyl)benzamido)propanoic acid] returned a Kb at human glucagon receptor [1] of 40 nM. Besides, on human glucagon receptor [2], the affinity corresponds to a Ki of 5.75 nM.

At human glucagon receptor [1], `CC(C)C[C@H](Nc1ccc(C(=O)NCCC(=O)O)cn1)c1ccc(-n2cc(C(F)(F)F)cn2)nc1` (single isomer, unassigned) [Example 142, 3-(6-(3-methyl-1-(6-(4-(trifluoromethyl)-1H-pyrazol-1-yl)pyridin-3-yl)butylamino)nicotinamido)propanoic acid] yielded a Kb of 883 nM. At human glucagon receptor [2], this molecule came in with a Ki of 636 nM.

In the case of `CC(C)C[C@H](Nc1ccc(C(=O)NCCC(=O)O)cn1)c1ccc(-n2cc(C(F)(F)F)cn2)nc1` (single isomer, unassigned) [Example 143, 3-(6-(3-methyl-1-(6-(4-(trifluoromethyl)-1H-pyrazol-1-yl)pyridin-3-yl)butylamino)nicotinamido)propanoic acid], on human glucagon receptor [1], the Kb was determined as 179 nM. Moreover, on human glucagon receptor [2], the affinity corresponds to a Ki of 57.4 nM.

`CCCC(Oc1cc(C)c(-n2cc(Cl)cn2)c(C)c1)c1ccc(C(=O)NCCC(=O)O)cc1` (single isomer, unassigned) [Example 145, 3-(4-(1-(4-(4-chloro-1H-pyrazol-1-yl)-3,5-dimethylphenoxy)butyl)benzamido)propanoic acid] had a Kb at human glucagon receptor [1] of 156 nM. Besides, the Ki at human glucagon receptor [2] turned out to be 93.2 nM.

Consider `O=C(O)CCNC(=O)c1ccc([C@@H](Nc2ccc(-n3cc(C(F)(F)F)cn3)nc2)C2CCCCC2)cc1` (single isomer, unassigned) [Example 146, 3-(4-(cyclohexyl(6-(4-(trifluoromethyl)-1H-pyrazol-1-yl)pyridine-3-ylamino)methyl)benzamido)propanoic acid], for which, at human glucagon receptor [1], the Kb came out at 21 nM. The molecule further had a Ki on human glucagon receptor [2] of 9.05 nM.

Molecule `O=C(O)CCNC(=O)c1ccc([C@@H](Nc2ccc(-n3cc(C(F)(F)F)cn3)nc2)C2CCCCC2)cc1` (single isomer, unassigned) [Example 147, 3-(4-(cyclohexyl(6-(4-(trifluoromethyl)-1H-pyrazol-1-yl)pyridine-3-ylamino)methyl)benzamido)propanoic acid] showed a Kb at human glucagon receptor [1] of 343 nM. At human glucagon receptor [2], this molecule returned a Ki of 26.7 nM.

As to `CC1(C)CC(C(Oc2cnc(-n3cc(C(F)(F)F)cn3)nc2)c2ccc(C(=O)NCCC(=O)O)cc2)C1` (single isomer, unassigned; isomer 1) [Example 155, 3-(4-((3,3-dimethylcyclobutyl)(2-(4-(trifluoromethyl)-1H-pyrazol-1-yl)pyrimidin-5-yloxy)methyl)benzamido)propanoic acid, Isomer 1], the Kb at human glucagon receptor [1] came to 313 nM. In addition, the Ki on human glucagon receptor [2] was 94.9 nM.

Turning to `CC1(C)CC(C(Oc2cnc(-n3cc(C(F)(F)F)cn3)nc2)c2ccc(C(=O)NCCC(=O)O)cc2)C1` (single isomer, unassigned; isomer 1) [Example 156, 3-(4-((3,3-dimethylcyclobutyl)(2-(4-(trifluoromethyl)-1H-pyrazol-1-yl)pyrimidin-5-yloxy)methyl)benzamido)propanoic acid, Isomer 1], the Kb on human glucagon receptor [1] stood at 246 nM. Further, at human glucagon receptor [2], the affinity, expressed as Ki, was 251 nM.

For `CC1(C)CC(C(Nc2cnc(-n3cc(C(F)(F)F)cn3)nc2)c2ccc(C(=O)NCCC(=O)O)cc2)C1` (single isomer, unassigned; isomer 1) [Example 157, 3-(4-((3,3-dimethylcyclobutyl)(2-(4-(trifluoromethyl)-1H-pyrazol-1-yl)pyrimidin-5-ylamino)methyl)benzamido)propanoic acid, Isomer 1], at human glucagon receptor [1], the Kb was found to be 18.6 nM. For the same molecule, the Ki on human glucagon receptor [2] came out at 5.55 nM.

Molecule `CCCC(Nc1ccc(-n2cc(-c3ccccc3)cn2)nc1)c1ccc(C(=O)NCCC(=O)O)cc1` (single isomer, unassigned; isomer 1) [Example 160, 3-(4-(1-(6-(4-phenyl-1H-pyrazol-1-yl)pyridine-3-ylamino)butyl)benzamido)propanoic acid, Isomer 1] yielded a Kb at human glucagon receptor [1] of 111 nM. The molecule also displayed a Ki on human glucagon receptor [2] of 29 nM.

Take `CCCC(Nc1ccc(-n2cc(CC)c(C)n2)nc1)c1ccc(C(=O)NCCC(=O)O)cc1` (single isomer, unassigned; isomer 1) [Example 166, 3-(4-(1-(6-(4-ethyl-3-methyl-1H-pyrazol-1-yl)pyridin-3-ylamino)butyl)benzamido)propanoic acid, Isomer 1]: the Kb on human glucagon receptor [1] was found to be 94.8 nM. Moreover, affinity on human glucagon receptor [2] was put at a Ki of 91.5 nM.
